biological target: T1, Tg_CA (Toxoplasma gondii, UniProt S8F479); test: stopped-flow CO2 hydration, phenol red, Cheng-Prusoff; assay type: biochemical
T1 construct: gene TGME49_259950; alpha-CA domain, residues 487-830 of an 861-residue protein; E. coli BL21(DE3) codon-plus; about 47 kDa
T1 sequence (S8F479 487-830): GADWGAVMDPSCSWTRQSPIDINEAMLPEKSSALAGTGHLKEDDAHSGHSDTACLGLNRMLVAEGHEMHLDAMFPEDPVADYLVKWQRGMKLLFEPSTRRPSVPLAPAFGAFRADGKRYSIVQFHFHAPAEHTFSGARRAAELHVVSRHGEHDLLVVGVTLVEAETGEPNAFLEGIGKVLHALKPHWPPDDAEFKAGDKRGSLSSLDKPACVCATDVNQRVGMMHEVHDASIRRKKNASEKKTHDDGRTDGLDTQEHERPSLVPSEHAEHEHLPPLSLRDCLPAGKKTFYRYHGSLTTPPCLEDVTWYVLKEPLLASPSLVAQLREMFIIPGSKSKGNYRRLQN

Going from `CCN[C@H]1CN(CCCOC)S(=O)(=O)c2sc(S(N)(=O)=O)cc21` [BRZ, Brinzolamide] to `NS(=O)(=O)c1cc2c(cc1Cl)NCNS2(=O)=O` [HCT, Hydrochlorothiazide], the Ki rises from 77.8 nM to 839 nM (11-fold). The first binds more tightly here.

First: NS(=O)(=O)c1nnc(NS(=O)(=O)c2ccccc2)s1 [BZA, Benzolamide]
Second: Nc1ccc(S(=O)(=O)Nc2nnc(S(N)(=O)=O)s2)cc1 [compound 20]
The Ki of the first is 3.5-fold higher: 62.1 nM for the first, 17.8 nM for the second.

`Cc1ccc(-c2cc(C(F)(F)F)nn2-c2ccc(S(N)(=O)=O)cc2)cc1` [CLX, Celecoxib] and `Cc1onc(-c2ccccc2)c1-c1ccc(S(N)(=O)=O)cc1` [VLX, Valdecoxib] are within 1.5-fold of each other in Ki: 508 nM for the first, 426 nM for the second.

`NS(=O)(=O)c1cc(Cl)c(Cl)c(S(N)(=O)=O)c1` [DCP, Dichlorphenamide] and `Nc1cc(Cl)c(S(N)(=O)=O)cc1S(N)(=O)=O` [compound 12] are within 1.5-fold of each other in Ki: 77.5 nM for the first, 73.8 nM for the second.

`NS(=O)(=O)c1ccc(S(=O)(=O)Nc2cccc3c(Cl)c[nH]c23)cc1` [IND, Indisulam] and `Nc1ccc(S(=O)(=O)Nc2ccc(S(N)(=O)=O)cc2)cc1` [compound 22] are within 1.5-fold of each other in Ki: 84 nM for the first, 91.2 nM for the second.

Going from `CC(=O)N=c1sc(S(N)(=O)=O)nn1C` [MZA, Methazolamide] to `Cn1nc(S(N)(=O)=O)sc1=N` [compound 14], the Ki rises from 24.7 nM to 61 nM (2.5-fold). The first binds more tightly here.

First: O=C1NS(=O)(=O)c2ccccc21 [SAC, Saccharin]
Second: NS(=O)(=O)Cc1noc2ccccc12 [ZNS, Zonisamide]
The Ki of the first is 9.3-fold higher: 8450 nM for the first, 912 nM for the second.

`CC1(C)O[C@@H]2[C@@H](CO[C@@]3(COS(N)(=O)=O)OC(C)(C)O[C@@H]23)O1` [TPM, Topiramate] and `Cc1ccc(S(N)(=O)=O)cc1` [compound 4] are within 1.5-fold of each other in Ki: 720 nM for the first, 586 nM for the second.

First: NCc1ccc(S(N)(=O)=O)cc1 [compound 5]
Second: NS(=O)(=O)c1ccc(CO)cc1 [compound 16]
The Ki of the first is 8.1-fold higher: 739 nM for the first, 91.6 nM for the second.

First: NS(=O)(=O)c1cc(Cl)cc(Cl)c1O [compound 10]
Second: NS(=O)(=O)c1ccc(O)cc1 [compound 15]
The Ki of the first is 7.6-fold higher: 578 nM for the first, 76.4 nM for the second. The second binds more tightly here.

`Nc1cc(C(F)(F)F)c(S(N)(=O)=O)cc1S(N)(=O)=O` [compound 11] and `Nc1ccc(S(=O)(=O)NCc2ccc(S(N)(=O)=O)cc2)cc1` [compound 23] are within 1.5-fold of each other in Ki: 65.1 nM for the first, 93.4 nM for the second.

`Nc1nnc(S(N)(=O)=O)s1` [compound 13] and `Nc1nccc(Nc2ccc(S(N)(=O)=O)cc2)n1` [compound 19] are within 1.5-fold of each other in Ki: 57.5 nM for the first, 72.5 nM for the second.

Compared with `NS(=O)(=O)c1ccc(CCO)cc1` [compound 17], `NS(=O)(=O)c1ccc(C(=O)O)cc1` [compound 18] is 3.1-fold lower in Ki: 263 nM for the first, 85.3 nM for the second. The second binds more tightly here.

Compared with `NS(=O)(=O)c1ccc(CCNS(=O)(=O)c2ccc([N+](=O)[O-])cc2CO)cc1` [compound 21], `Nc1ccc(S(=O)(=O)NCCc2ccc(S(N)(=O)=O)cc2)cc1` [compound 24] is 2.2-fold higher in Ki: 94.7 nM for the first, 204 nM for the second.

— publication PMC11719606, “Exploring the Inhibition of Toxoplasma gondii α-Carbonic Anhydrase by Sulfonamides: Insights into Potential Drug Targeting” (International Journal of Molecular Sciences, 2024)
